These results are taken from patent US8993509B2, “Method for treatment of cachexia by administering inhibitors of adipose triglyceride lipase expression or activity” (priority 2010, dated 2015).

One test deals with T1, iPLA2β (Homo sapiens, UniProt O60733).
T1 sequence (O60733 1-806): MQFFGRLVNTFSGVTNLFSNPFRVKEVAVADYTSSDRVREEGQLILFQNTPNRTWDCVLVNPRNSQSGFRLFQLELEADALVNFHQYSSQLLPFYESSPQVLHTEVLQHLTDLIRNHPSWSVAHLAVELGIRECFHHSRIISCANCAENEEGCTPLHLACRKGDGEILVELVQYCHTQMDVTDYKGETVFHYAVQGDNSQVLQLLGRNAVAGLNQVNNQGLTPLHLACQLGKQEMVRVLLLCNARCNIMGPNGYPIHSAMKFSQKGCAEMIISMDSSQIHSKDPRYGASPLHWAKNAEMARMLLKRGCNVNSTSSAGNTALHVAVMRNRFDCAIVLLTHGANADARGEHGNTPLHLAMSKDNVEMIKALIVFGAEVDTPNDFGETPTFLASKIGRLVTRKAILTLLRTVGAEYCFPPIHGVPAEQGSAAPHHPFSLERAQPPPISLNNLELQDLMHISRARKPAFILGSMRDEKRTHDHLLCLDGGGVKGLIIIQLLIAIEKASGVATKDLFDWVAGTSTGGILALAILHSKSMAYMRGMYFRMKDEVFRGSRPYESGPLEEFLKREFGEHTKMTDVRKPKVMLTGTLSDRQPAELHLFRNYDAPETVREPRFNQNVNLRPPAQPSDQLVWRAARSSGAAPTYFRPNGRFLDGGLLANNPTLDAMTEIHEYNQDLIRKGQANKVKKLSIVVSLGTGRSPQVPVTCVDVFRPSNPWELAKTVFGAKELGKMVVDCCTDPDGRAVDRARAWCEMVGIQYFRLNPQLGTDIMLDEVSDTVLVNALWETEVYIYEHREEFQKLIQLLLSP
The note with it: cited from earlier work.

For a further test, the target named is T2, iPLA2γ (Homo sapiens, UniProt Q9NP80).
T2 sequence (Q9NP80 1-782): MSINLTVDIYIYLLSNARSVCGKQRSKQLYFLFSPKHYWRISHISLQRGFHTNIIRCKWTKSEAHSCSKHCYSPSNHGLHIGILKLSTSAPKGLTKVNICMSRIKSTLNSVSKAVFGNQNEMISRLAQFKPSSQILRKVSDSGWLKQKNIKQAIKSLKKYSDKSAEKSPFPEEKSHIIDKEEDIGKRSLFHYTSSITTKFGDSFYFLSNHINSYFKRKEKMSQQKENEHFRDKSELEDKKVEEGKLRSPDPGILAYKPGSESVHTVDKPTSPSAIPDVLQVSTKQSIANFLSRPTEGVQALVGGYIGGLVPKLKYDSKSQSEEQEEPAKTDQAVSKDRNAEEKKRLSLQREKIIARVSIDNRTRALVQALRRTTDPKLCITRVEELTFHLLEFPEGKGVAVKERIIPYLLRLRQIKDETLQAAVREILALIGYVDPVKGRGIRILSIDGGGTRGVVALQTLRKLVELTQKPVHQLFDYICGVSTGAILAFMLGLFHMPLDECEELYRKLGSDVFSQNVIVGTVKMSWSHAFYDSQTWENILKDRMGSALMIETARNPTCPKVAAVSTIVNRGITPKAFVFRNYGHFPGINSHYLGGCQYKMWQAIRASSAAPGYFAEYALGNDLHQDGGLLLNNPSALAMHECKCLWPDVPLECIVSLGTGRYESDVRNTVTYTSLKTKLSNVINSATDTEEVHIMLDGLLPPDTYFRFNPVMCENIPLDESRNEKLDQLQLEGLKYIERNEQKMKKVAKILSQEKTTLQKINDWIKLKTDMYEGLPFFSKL
The note with it: cited from earlier work.

The target of test [1] is T3, ATGL (Homo sapiens, UniProt Q96AD5).
T3 sequence (Q96AD5 1-504): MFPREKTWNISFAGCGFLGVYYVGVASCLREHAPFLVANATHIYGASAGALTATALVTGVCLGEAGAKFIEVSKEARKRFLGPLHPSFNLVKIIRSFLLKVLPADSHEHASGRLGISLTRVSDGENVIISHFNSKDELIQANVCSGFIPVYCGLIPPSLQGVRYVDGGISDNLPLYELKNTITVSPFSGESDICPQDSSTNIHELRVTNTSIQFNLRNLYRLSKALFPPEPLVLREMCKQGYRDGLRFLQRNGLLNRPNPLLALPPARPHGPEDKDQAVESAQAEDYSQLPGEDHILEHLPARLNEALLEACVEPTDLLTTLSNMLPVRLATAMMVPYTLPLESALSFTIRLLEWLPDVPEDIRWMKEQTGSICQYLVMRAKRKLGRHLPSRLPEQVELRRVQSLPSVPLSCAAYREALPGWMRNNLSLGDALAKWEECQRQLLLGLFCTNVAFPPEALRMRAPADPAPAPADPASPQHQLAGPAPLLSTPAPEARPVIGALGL
The following applies: expressed ATGL or native ATGL in hepatocytes; cited from earlier work.

The target in test [2] is T4, ATGL (Mus musculus, UniProt Q8BJ56).
T4 construct: The lipid-free infranatant (cytosolic fraction) was collected and, used for triacyl-glycerol (TG) hydrolase assays; from tissue; host or cells: mouse white adipose tissue, cytosolic fraction (100,000 g infranatant)
T4 sequence (Q8BJ56 1-486): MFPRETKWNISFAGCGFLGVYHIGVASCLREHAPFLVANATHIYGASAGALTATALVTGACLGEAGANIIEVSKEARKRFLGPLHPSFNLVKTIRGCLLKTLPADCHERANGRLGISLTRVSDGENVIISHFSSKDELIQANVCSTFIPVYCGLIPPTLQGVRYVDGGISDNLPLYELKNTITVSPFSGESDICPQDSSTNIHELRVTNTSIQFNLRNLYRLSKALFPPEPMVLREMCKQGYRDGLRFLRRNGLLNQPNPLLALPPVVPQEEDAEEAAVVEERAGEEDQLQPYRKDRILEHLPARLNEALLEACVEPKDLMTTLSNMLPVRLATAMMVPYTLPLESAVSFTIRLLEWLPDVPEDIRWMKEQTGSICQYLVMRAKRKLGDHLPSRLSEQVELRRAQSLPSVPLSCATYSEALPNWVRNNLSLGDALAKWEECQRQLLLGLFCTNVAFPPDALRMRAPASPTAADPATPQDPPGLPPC
Description: Lipase assay (triglyceride hydrolase assay) with candidate inhibitors. The test is classed as biochemical. The following applies: versus control (DMSO), FIG. 9. The method, then:
Mesenteric, retroperitoneal, omental and, gonadal white adipose tissues (WAT) of wild-type (wt), Adipose Tri-Glyceride Lipase-knockout (ATGL-ko) and, Hormone Sensitive Lipase-knockout (HSL-ko) mice were removed surgically and, washed in phosphate-buffered saline (PBS) containing 1 mM ethylenediaminetetraacetic-acid (EDTA). The tissue was homogenized in lysis buffer (0.25 M sucrose, 1 mM EDTA, 1 mM dithiothreitol, 20 μg/ml leupeptin, 2 μg/ml antipain, 1 μg/ml pepstatin, pH 7.0) using a Magna Lyser (Roche diagnostics GmbH, Mannheim, Germany). The WAT lysate was centrifuged at 100,000 g for 1 hour (h) at 4° C. The lipid-free infranatant (cytosolic fraction) was collected and, used for triacyl-glycerol (TG) hydrolase assays. The substrate for the measurement of lipase activity containing triolein and [9, 10-3H(N)-triolein] (NEN Life Science Products, Boston, Mass.) as radioactive tracer was emulsified with phosphatidylcholine/phosphatidylinositol using a conventional ultrasound sonicator. The cytosolic fractions supplemented with or, without a specific inhibitor for HSL were incubated at 37° C. for 60 min under constant shaking. The reaction was terminated by addition of 3.25 ml methanol/chloroform/heptane (10:9:7) and, 1 ml of 0.1 M potassium carbonate and, 0.1 M boric acid (pH 10.5). After centrifugation at 800 g for 20 minutes (min) the radioactivity in 1 ml of the upper phase was determined by liquid scintillation counting in a LS 6500 Multi-Purpose Scintillation Counter from Beckman Coulter Inc. (Fullerton, Calif.).
For determination of lipase activity 0.1 ml of cytosolic extracts and 0.1 ml substrate are incubated in a water bath at 37° C. for 60 min. The reaction is terminated by adding 3.25 ml of methanol/chloroform/heptane (10:9:7) and 1 ml of 0.1 M potassium carbonate, 0.1 M boric acid, pH 10.5. After centrifugation (800 g, 20 min) the radioactivity in 1 ml of the upper phase is determined by liquid scintillation counting. Neutral lipase activity is measured in 50 mM potassium phosphate buffer, pH 7.0 and 2.5% defatted BSA. The substrate for neutral TG lipase activity contained 33 nmol triolein/assay with [9,10-^3H(N)]-triolein (40.000 cpm/nmol, NEN Life Science Products) as radioactive tracer for COS-7 cells and 167 nmol/assay for 3T3-L1 adipocytes (7300 cpm/nmol). The substrates for cholesteryl esterase and retinyl esterase activity contained 10 nmol/assay of cholesteryl oleate or retinyl palmitate and the corresponding tracers cholesteryl [9,10-^3H]-oleate or retinyl [9,10-^3H(N)]-palmitate (50.000 cpm/nmol). For determination of phospholipase activity in cytosolic extracts the substrate contained 20 nmol/assay phosphatidylcholine and [dipalmitoyl-1-^14C]-phosphatidylcholine (12.000 cpm/nmol). […]

Turning to `O=C1O/C(=C/Br)CC[C@@H]1c1cccc2ccccc12` [(R)-Bromoenol lactone], the “inhibition of iPLA2β” value at iPLA2β is “inhibits”. Further, the “inhibition of iPLA2γ” value on iPLA2γ was “inhibits”. Moreover, the ATGL inhibition activity entry on ATGL [1] is listed as “ATGL inhibition activity”.

For the compound `COC(=O)C(O)(c1cc(C)c(O)c(C)c1)C(F)(F)F` (stereo not shown) [Compound 3], on ATGL [2], the “inhibition of ATGL (ATGL activity, % control)” value is given as “inhibit ATGL”.

`Oc1ccc(/C=N/N2CCN(c3ccccc3)CC2)cc1O` [Compound 4]: the “inhibition of ATGL (ATGL activity, % control)” value at ATGL [2] is listed as “largest degree of inhibition”.

For `CN(C)/N=C/c1ccccc1OC(=O)c1cccnc1` [Compound 7], the “inhibition of ATGL (ATGL activity, % control)” value against ATGL [2] was “inhibit ATGL”.

As for `CCOC(=O)c1nn(-c2ccc(OCC)cc2)cc1O` [Compound 9], the “inhibition of ATGL (ATGL activity, % control)” value at ATGL [2] is “inhibit ATGL”.
